Starred links: 1 amine or outer side, 2 acyl side, 3 side chain; linkers in the order of their positions; H or OH if unused. Positions of bridges follow the written chain, without caps; N, C: chain ends. Non-standard residues stand in square brackets, D forms with d. Residues, ends and D or L forms follow the SMILES beside them. ξ: configuration not given here. *: point of attachment. X22 = O=C(O)COc1cccc(C(=O)N[C@@H](Cc2cn(CC(=O)O)c3ccccc23)C(=O)*)c1; Bip(4'-NH) = O=C([C@H](Cc1ccc(-c2ccc(N[*:3])cc2)cc1)N[*:1])[*:2]; X71 = O=C(O)Cn1cc(C[C@H](NC(=O)c2cccc(C(=O)O)c2)C(=O)*)c2ccccc21; Indazole3carbonyl(1-CH2COOH) = O=C(O)Cn1nc(C(=O)*)c2ccccc21; Bip(4'-COOH) = N[C@@H](Cc1ccc(-c2ccc(C(=O)O)cc2)cc1)C(=O)O; X27 = N=C(NCCC[C@@H](N[*:1])C(=O)[*:2])NCCc1ccc2c(c1)OCO2; X76 = O=C(O)CCC(=O)N[C@@H](Cc1cn(CC(=O)O)c2ccccc12)C(=O)*; X83 = N=C(NCCC[C@@H](N[*:1])C(=O)[*:2])NCCc1ccc(O)c(O)c1; X18 = N=C(NCCC[C@@H](N[*:1])C(=O)[*:2])NCCc1ccc(O)cc1; X35 = N=C(NCCC[C@@H](N[*:1])C(=O)[*:2])NCCc1ccc(N)cc1; X58 = N=C(NCCC[C@@H](N[*:1])C(=O)[*:2])NCCc1cccc(N)c1; X11 = CC(=O)N[C@@H](Cc1cn(CC(=O)O)c2ccccc12)C(=O)*; Ala(imidazol-2-yl) = N[C@@H](Cc1ncc[nH]1)C(=O)O; Ala(morpholin-4-yl) = N[C@@H](CN1CCOCC1)C(=O)O; Bip = N[C@@H](Cc1ccc(-c2ccccc2)cc1)C(=O)O; X16 = Cc1noc(-c2ccc(C(=O)*)cc2)n1; Tic = O=C(O)[C@@H]1Cc2ccccc2CN1; Cha = N[C@@H](CC1CCCCC1)C(=O)O; X20 = O=C(c1csc(-c2ccncc2)n1)*; Tle = CC(C)(C)[C@H](N)C(=O)O; ξP = O=C(O)C1CCCN1; Sar = CNCC(=O)O

In the first test the target is TNFα (Homo sapiens, UniProt P01375). Kind of test: TNF-Induced HEK-Blue Assay. In kind it is cell-based.
Sequence of TNFα (P01375 77-233 limits assumed): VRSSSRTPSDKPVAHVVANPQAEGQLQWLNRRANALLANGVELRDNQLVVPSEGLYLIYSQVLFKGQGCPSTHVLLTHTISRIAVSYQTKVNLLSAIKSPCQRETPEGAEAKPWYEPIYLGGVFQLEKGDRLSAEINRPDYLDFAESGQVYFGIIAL
Settings: not given
A word on the IC50: it is the point on the concentration scale where inhibition reaches its midpoint. Take `CC(C)C[C@@H]1NC(=O)[C@H](CCCNC(=N)N)NC(=O)[C@H](C(C)C)NC(=O)C2CCCN2C(=O)[C@H](C(C)C)NC(=O)[C@@H](CCCNC(=N)NCCc2ccc(O)cc2)NC(=O)[C@H](CC(=O)O)NC(=O)[C@@H]2CCCN2C(=O)CN(C)C(=O)[C@H](Cc2ccc(-c3ccc(NC(=O)c4nn(CC(=O)O)c5ccccc45)cc3)cc2)NC(=O)[C@H](Cc2ccc(-c3ccc(C(=O)O)cc3)cc2)NC(=O)[C@H](CN2CCOCC2)NC(=O)CSC[C@@H](C(=O)NCC(N)=O)NC1=O` (stereo partly shown) [Example 404] ({CH2CO}-[Ala(morpholin-4-yl)][Bip(4'-COOH)][Bip(4'-NH)](Indazole3carbonyl(1-CH2COOH))[Sar]PD[X18]V[ξP]VRLCG-NH2; thioether N-13): the IC50 lay in the range of 50 to 200 nM.
In the case of `CC(C)C[C@@H]1NC(=O)[C@H](CCCNC(=N)N)NC(=O)[C@H](C(C)C)NC(=O)C2CCCN2C(=O)[C@H](C(C)C)NC(=O)[C@@H](CCCNC(=N)NCCc2cccc(N)c2)NC(=O)[C@H](CC(=O)O)NC(=O)[C@@H]2CCCN2C(=O)CN(C)C(=O)[C@H](Cc2ccc(-c3ccc(NC(=O)c4nn(CC(=O)O)c5ccccc45)cc3)cc2)NC(=O)[C@H](Cc2ccc(-c3ccccc3)cc2)NC(=O)[C@H](CN2CCOCC2)NC(=O)CSC[C@@H](C(=O)NCC(N)=O)NC1=O` (stereo partly shown) [Example 405] ({CH2CO}-[Ala(morpholin-4-yl)][Bip][Bip(4'-NH)](Indazole3carbonyl(1-CH2COOH))[Sar]PD[X58]V[ξP]VRLCG-NH2; thioether N-13), the concentration for half-maximal inhibition (IC50) fell in the range of 50 to 200 nM.
Take `CC(C)C[C@@H]1NC(=O)[C@H](CCCNC(=N)N)NC(=O)[C@H](C(C)C)NC(=O)C2CCCN2C(=O)[C@H](C(C)C)NC(=O)[C@@H](CCCNC(=N)NCCc2cccc(N)c2)NC(=O)[C@H](CC(=O)O)NC(=O)[C@@H]2CCCN2C(=O)CN(C)C(=O)[C@H](Cc2ccc(-c3ccc(NC(=O)c4nn(CC(=O)O)c5ccccc45)cc3)cc2)NC(=O)[C@H](Cc2ccc(-c3ccc(C(=O)O)cc3)cc2)NC(=O)[C@H](CN2CCOCC2)NC(=O)CSC[C@@H](C(=O)NCC(N)=O)NC1=O` (stereo partly shown) [Example 406] ({CH2CO}-[Ala(morpholin-4-yl)][Bip(4'-COOH)][Bip(4'-NH)](Indazole3carbonyl(1-CH2COOH))[Sar]PD[X58]V[ξP]VRLCG-NH2; thioether N-13): the IC50 fell in the range of 50 to 200 nM.
`CC(C)C[C@@H]1NC(=O)[C@H](CCCNC(=N)N)NC(=O)[C@H](C(C)C)NC(=O)[C@@H]2CCCN2C(=O)[C@H](C(C)C)NC(=O)[C@@H](CCCNC(=N)NCCc2ccc(N)cc2)NC(=O)[C@H](CC(=O)O)NC(=O)[C@@H]2CCCN2C(=O)CN(C)C(=O)[C@H](Cc2ccc(-c3ccc(NC(=O)c4nn(CC(=O)O)c5ccccc45)cc3)cc2)NC(=O)[C@H](Cc2ccc(-c3ccccc3)cc2)NC(=O)[C@H](CN2CCOCC2)NC(=O)CSC[C@@H](C(=O)NCC(N)=O)NC1=O` [Example 407] ({CH2CO}-[Ala(morpholin-4-yl)][Bip][Bip(4'-NH)](Indazole3carbonyl(1-CH2COOH))[Sar]PD[X35]VPVRLCG-NH2; thioether N-13) gave an IC50 of 50 to 200 nM.
For the molecule `CC(C)C[C@@H]1NC(=O)[C@H](CCCNC(=N)N)NC(=O)[C@H](C(C)C)NC(=O)[C@@H]2CCCN2C(=O)[C@H](C(C)C)NC(=O)[C@@H](CCCNC(=N)NCCc2ccc3c(c2)OCO3)NC(=O)[C@H](CC(=O)O)NC(=O)[C@@H]2CCCN2C(=O)CN(C)C(=O)[C@H](Cc2ccc(-c3ccc(NC(=O)c4nn(CC(=O)O)c5ccccc45)cc3)cc2)NC(=O)[C@H](Cc2ccc(-c3ccccc3)cc2)NC(=O)[C@H](CN2CCOCC2)NC(=O)CSC[C@@H](C(=O)NCC(N)=O)NC1=O` [Example 408] ({CH2CO}-[Ala(morpholin-4-yl)][Bip][Bip(4'-NH)](Indazole3carbonyl(1-CH2COOH))[Sar]PD[X27]VPVRLCG-NH2; thioether N-13), the IC50 was under 50 nM.
Still for that read-out and setting: the figure for `CC(C)C[C@@H]1NC(=O)[C@H](CCCNC(=N)N)NC(=O)[C@H](C(C)C)NC(=O)[C@@H]2CCCN2C(=O)[C@H](C(C)C)NC(=O)[C@@H](CCCNC(=N)NCCc2ccc3c(c2)OCO3)NC(=O)[C@H](CC(=O)O)NC(=O)[C@@H]2CCCN2C(=O)CN(C)C(=O)[C@H](Cc2ccc(-c3ccc(NC(=O)c4nn(CC(=O)O)c5ccccc45)cc3)cc2)NC(=O)[C@H](Cc2ccc(-c3ccc(C(=O)O)cc3)cc2)NC(=O)[C@H](CN2CCOCC2)NC(=O)CSC[C@@H](C(=O)NCC(N)=O)NC1=O` [Example 409] ({CH2CO}-[Ala(morpholin-4-yl)][Bip(4'-COOH)][Bip(4'-NH)](Indazole3carbonyl(1-CH2COOH))[Sar]PD[X27]VPVRLCG-NH2; thioether N-13) is 50 to 200 nM; for `CC(C)C[C@@H]1NC(=O)[C@H](CCCNC(=N)N)NC(=O)[C@H](C(C)C)NC(=O)C2CCCN2C(=O)[C@H](C(C)C)NC(=O)[C@@H](CCCNC(=N)NCCc2ccc(O)c(O)c2)NC(=O)[C@H](CC(=O)O)NC(=O)[C@@H]2CCCN2C(=O)CN(C)C(=O)[C@H](Cc2ccc(-c3ccc(NC(=O)c4nn(CC(=O)O)c5ccccc45)cc3)cc2)NC(=O)[C@H](Cc2ccc(-c3ccccc3)cc2)NC(=O)[C@H](CN2CCOCC2)NC(=O)CSC[C@@H](C(=O)NCC(N)=O)NC1=O` (stereo partly shown) [Example 410] ({CH2CO}-[Ala(morpholin-4-yl)][Bip][Bip(4'-NH)](Indazole3carbonyl(1-CH2COOH))[Sar]PD[X83]V[ξP]VRLCG-NH2; thioether N-13) it is 200 to 2000 nM.

The test is the same for the next values; noted with them: HEK-Blue-CD40L cells, NF-kB-driven secreted alkaline phosphatase reporter; TNFα 0.5 ng/ml; 18 h; read-out: TNF induced HEK-Blue assay IC50 value.
For `CC[C@H](C)[C@@H]1NC(=O)[C@@H](CCCNC(=N)N)NC(=O)[C@H](CC(=O)O)NC(=O)[C@H](Cc2cnc[nH]2)NC(=O)CN(C)C(=O)[C@H](Cc2ccc(-c3ccc(NC(=O)c4csc(-c5ccncc5)n4)cc3)cc2)NC(=O)[C@H](Cc2ccc(-c3ccc(C(=O)O)cc3)cc2)NC(=O)[C@H](CC2CCCCC2)NC(=O)CSC[C@@H](C(=O)NCC(N)=O)NC(=O)[C@H](CC(C)C)NC(=O)[C@H](Cc2ncc[nH]2)NC(=O)[C@H](C(C)C)NC(=O)[C@@H]2Cc3ccccc3CN2C1=O` [Example 411] ({CH2CO}-[Cha][Bip(4'-COOH)][Bip(4'-NH)](X20)[Sar]HD[dR]I[Tic]V[Ala(imidazol-2-yl)]LCG-NH2; thioether N-13), the IC50 lay in the range of 50 to 200 nM.
Same read-out and setting: the figure for `CC[C@H](C)[C@@H]1NC(=O)[C@@H](CCCNC(=N)N)NC(=O)[C@H](CC(=O)O)NC(=O)[C@H](Cc2cnc[nH]2)NC(=O)CN(C)C(=O)[C@H](Cc2ccc(-c3ccc(NC(=O)c4ccc(-c5nc(C)no5)cc4)cc3)cc2)NC(=O)[C@H](Cc2ccc(-c3ccc(C(=O)O)cc3)cc2)NC(=O)[C@H](CC2CCCCC2)NC(=O)CSC[C@@H](C(=O)NCC(N)=O)NC(=O)[C@H](CC(C)C)NC(=O)[C@H](Cc2ncc[nH]2)NC(=O)[C@H](C(C)C)NC(=O)[C@@H]2Cc3ccccc3CN2C1=O` [Example 412] ({CH2CO}-[Cha][Bip(4'-COOH)][Bip(4'-NH)](X16)[Sar]HD[dR]I[Tic]V[Ala(imidazol-2-yl)]LCG-NH2; thioether N-13) is 50 to 200 nM; for `CC[C@H](C)[C@@H]1NC(=O)[C@@H](CCCNC(=N)N)NC(=O)[C@H](CC(=O)O)NC(=O)[C@H](Cc2cnc[nH]2)NC(=O)CN(C)C(=O)[C@H](Cc2ccc(-c3ccc(NC(=O)[C@H](Cc4cn(CC(=O)O)c5ccccc45)NC(=O)CCC(=O)O)cc3)cc2)NC(=O)[C@H](Cc2ccc(-c3ccccc3)cc2)NC(=O)[C@H](CC2CCCCC2)NC(=O)CSC[C@@H](C(=O)NCC(N)=O)NC(=O)[C@H](CC(C)C)NC(=O)[C@H](Cc2ncc[nH]2)NC(=O)[C@H](C(C)C)NC(=O)[C@@H]2CCCN2C1=O` [Example 413] ({CH2CO}-[Cha][Bip][Bip(4'-NH)](X76)[Sar]HD[dR]IPV[Ala(imidazol-2-yl)]LCG-NH2; thioether N-13) it is 200 to 2000 nM; for `CC[C@H](C)[C@@H]1NC(=O)[C@@H](CCCNC(=N)N)NC(=O)[C@H](CC(=O)O)NC(=O)[C@H](Cc2cnc[nH]2)NC(=O)CN(C)C(=O)[C@H](Cc2ccc(-c3ccc(NC(=O)[C@H](Cc4cn(CC(=O)O)c5ccccc45)NC(=O)c4cccc(OCC(=O)O)c4)cc3)cc2)NC(=O)[C@H](Cc2ccc(-c3ccccc3)cc2)NC(=O)[C@H](CC2CCCCC2)NC(=O)CSC[C@@H](C(=O)NCC(N)=O)NC(=O)[C@H](CC(C)C)NC(=O)[C@H](Cc2ncc[nH]2)NC(=O)[C@H](C(C)C)NC(=O)[C@@H]2CCCN2C1=O` [Example 414] ({CH2CO}-[Cha][Bip][Bip(4'-NH)](X22)[Sar]HD[dR]IPV[Ala(imidazol-2-yl)]LCG-NH2; thioether N-13) it is 50 to 200 nM.
As to `CC[C@H](C)[C@@H]1NC(=O)[C@@H](CCCNC(=N)N)NC(=O)[C@H](CC(=O)O)NC(=O)[C@H](Cc2cnc[nH]2)NC(=O)CN(C)C(=O)[C@H](Cc2ccc(-c3ccc(NC(=O)[C@H](Cc4cn(CC(=O)O)c5ccccc45)NC(=O)c4cccc(C(=O)O)c4)cc3)cc2)NC(=O)[C@H](Cc2ccc(-c3ccccc3)cc2)NC(=O)[C@H](CC2CCCCC2)NC(=O)CSC[C@@H](C(=O)NCC(N)=O)NC(=O)[C@H](CC(C)C)NC(=O)[C@H](Cc2ncc[nH]2)NC(=O)[C@H](C(C)C)NC(=O)[C@@H]2CCCN2C1=O` [Example 415] ({CH2CO}-[Cha][Bip][Bip(4'-NH)](X71)[Sar]HD[dR]IPV[Ala(imidazol-2-yl)]LCG-NH2; thioether N-13), the IC50 was 50 to 200 nM.
Still for that read-out and setting: the value for `CC[C@H](C)[C@@H]1NC(=O)[C@@H]2CCCN2C(=O)[C@H]([C@@H](C)CC)NC(=O)[C@@H](CCCNC(=N)N)NC(=O)[C@H](CC(=O)O)NC(=O)[C@H](Cc2ccccc2)NC(=O)CN(C)C(=O)[C@H](Cc2ccc(-c3ccc(NC(=O)[C@H](Cc4cn(CC(=O)O)c5ccccc45)NC(C)=O)cc3)cc2)NC(=O)[C@H](Cc2ccc(-c3ccc(C(=O)O)cc3)cc2)NC(=O)[C@H](C(C)(C)C)NC(=O)CSC[C@@H](C(=O)NCC(N)=O)NC(=O)[C@H](CC(C)C)NC(=O)[C@H](Cc2ncc[nH]2)NC1=O` [Example 416] ({CH2CO}-[Tle][Bip(4'-COOH)][Bip(4'-NH)](X11)[Sar]FD[dR]IPI[Ala(imidazol-2-yl)]LCG-NH2; thioether N-13) was 50 to 200 nM.

For the origin of these results see patent US20250145665A1, “MACROCYCLIC PEPTIDES USEFUL AS MODULATORS OF TNF ALPHA” (Bristol-Myers Squibb Company, priority 2023, published 2025).
